From the supplement of paper PMC11451515

Key:
Details in all cases: 48 h
NOMO1 [1] = test: cell viability relative to DMSO control; higher = less cytotoxic
Method in brief: (§1)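 Library compounds in DMSO were pin-dosed into 1536-well plates (5 μl) holding NOMO1 or SEM (500 cells/well) or P12-Ichikawa (1000 cells/well) leukemia cells, across an 11-point threefold series of 47 μM to 0.79 nM. Each cell line had been adapted for at least four passages in each medium. CellTiter-Glo One luminescence was read after 48 h at 37°C. Viability is the per-plate percentage relative to DMSO wells, with cell-free wells as background.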

P12-Ichikawa [2] = test: as above
Method in brief: as §1

SEM cells [3] = test: as above
Method in brief: as §1

NOMO1 [4] = test: AUC of viability dose-response curve (% viability x log10 dose units); higher = less sensitive
Method in brief: (§2)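 Medium-adapted leukemia cells in 1536-well plates, at 500 or 1000 cells/well, were incubated for 48 h at 37°C with library compounds in DMSO at 11 threefold doses from 47 μM to 0.79 nM. CellTiter-Glo One luminescence normalised per plate to DMSO and cell-free wells was fitted with a four-parameter log-logistic model over log10 doses. Area under the curve was integrated from this fit by trapezoidal rule, with curves beyond full viability scaled and failed quality-control curves removed.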

P12-Ichikawa [5] = test: as above
Method in brief: as §2

SEM cells [6] = test: as above
Method in brief: as §2

[7] = HPLM + 10% dialyzed FBS, 0.000781 µM
[8] = HPLM + 10% dialyzed FBS, 0.00234 µM
[9] = HPLM + 10% dialyzed FBS, 0.00702 µM
[10] = HPLM + 10% dialyzed FBS, 0.0211 µM
[11] = HPLM + 10% dialyzed FBS, 0.0632 µM
[12] = HPLM + 10% dialyzed FBS, 0.19 µM
[13] = HPLM + 10% dialyzed FBS, 0.569 µM
[14] = HPLM + 10% dialyzed FBS, 1.71 µM
[15] = HPLM + 10% dialyzed FBS, 5.12 µM
[16] = HPLM + 10% dialyzed FBS, 15.4 µM
[17] = HPLM + 10% dialyzed FBS, 46.1 µM
[18] = RPMI 5 mM glucose + 10% FBS, 0.000781 µM
[19] = RPMI 5 mM glucose + 10% FBS, 0.00234 µM
[20] = RPMI 5 mM glucose + 10% FBS, 0.00702 µM
[21] = RPMI 5 mM glucose + 10% FBS, 0.0211 µM
[22] = RPMI 5 mM glucose + 10% FBS, 0.0632 µM
[23] = RPMI 5 mM glucose + 10% FBS, 0.19 µM
[24] = RPMI 5 mM glucose + 10% FBS, 0.569 µM
[25] = RPMI 5 mM glucose + 10% FBS, 1.71 µM
[26] = RPMI 5 mM glucose + 10% FBS, 5.12 µM
[27] = RPMI 5 mM glucose + 10% FBS, 15.4 µM
[28] = RPMI 5 mM glucose + 10% FBS, 46.1 µM
[29] = RPMI 5 mM glucose + 10% dialyzed FBS, 0.000781 µM
[30] = RPMI 5 mM glucose + 10% dialyzed FBS, 0.00234 µM
[31] = RPMI 5 mM glucose + 10% dialyzed FBS, 0.00702 µM
[32] = RPMI 5 mM glucose + 10% dialyzed FBS, 0.0211 µM
[33] = RPMI 5 mM glucose + 10% dialyzed FBS, 0.0632 µM
[34] = RPMI 5 mM glucose + 10% dialyzed FBS, 0.19 µM
[35] = RPMI 5 mM glucose + 10% dialyzed FBS, 0.569 µM
[36] = RPMI 5 mM glucose + 10% dialyzed FBS, 1.71 µM
[37] = RPMI 5 mM glucose + 10% dialyzed FBS, 5.12 µM
[38] = RPMI 5 mM glucose + 10% dialyzed FBS, 15.4 µM
[39] = RPMI 5 mM glucose + 10% dialyzed FBS, 46.1 µM
[40] = RPMI 5 mM glucose + 10% dialyzed FBS

C/C=C1\NC(=O)[C@H]2CSSCC/C=C\[C@H](CC(=O)N[C@H](C(C)C)C(=O)N2)OC(=O)[C@H](C(C)C)NC1=O
cell viability (NOMO1 [1]; [7]): 102%
cell viability (NOMO1 [1]; [8]): 119%
cell viability (NOMO1 [1]; [9]): 119%
cell viability (NOMO1 [1]; [10]): 105%
cell viability (NOMO1 [1]; [11]): 17.7%
cell viability (NOMO1 [1]; [12]): 4.68%
cell viability (NOMO1 [1]; [13]): 4.81%
cell viability (NOMO1 [1]; [14]): 4.43%
cell viability (NOMO1 [1]; [15]): 5.27%
cell viability (NOMO1 [1]; [16]): 4.81%
cell viability (NOMO1 [1]; [17]): 4.24%
cell viability (NOMO1 [1]; [18]): 99.6%
cell viability (NOMO1 [1]; [19]): 97.5%
cell viability (NOMO1 [1]; [20]): 104%
cell viability (NOMO1 [1]; [21]): 94.9%
cell viability (NOMO1 [1]; [22]): 18.1%
cell viability (NOMO1 [1]; [23]): 4.23%
cell viability (NOMO1 [1]; [24]): 3.46%
cell viability (NOMO1 [1]; [25]): 3.14%
cell viability (NOMO1 [1]; [26]): 2.93%
cell viability (NOMO1 [1]; [27]): 2.29%
cell viability (NOMO1 [1]; [28]): 2.53%
cell viability (NOMO1 [1]; [29]): 93.7%
cell viability (NOMO1 [1]; [30]): 90.3%
cell viability (NOMO1 [1]; [31]): 103%
cell viability (NOMO1 [1]; [32]): 108%
cell viability (NOMO1 [1]; [33]): 30.1%
cell viability (NOMO1 [1]; [34]): 4.52%
cell viability (NOMO1 [1]; [35]): 4.41%
cell viability (NOMO1 [1]; [36]): 3.52%
cell viability (NOMO1 [1]; [37]): 3.86%
cell viability (NOMO1 [1]; [38]): 1.77%
cell viability (NOMO1 [1]; [39]): 3.47%
cell viability (P12-Ichikawa [2]; [7]): 109%
cell viability (P12-Ichikawa [2]; [8]): 102%
cell viability (P12-Ichikawa [2]; [9]): 104%
cell viability (P12-Ichikawa [2]; [10]): 106%
cell viability (P12-Ichikawa [2]; [11]): 2.7%
cell viability (P12-Ichikawa [2]; [12]): 2.94%
cell viability (P12-Ichikawa [2]; [13]): 2.82%
cell viability (P12-Ichikawa [2]; [14]): 2.88%
cell viability (P12-Ichikawa [2]; [15]): 4.38%
cell viability (P12-Ichikawa [2]; [16]): 1.48%
cell viability (P12-Ichikawa [2]; [17]): 2.87%
cell viability (P12-Ichikawa [2]; [18]): 97.9%
cell viability (P12-Ichikawa [2]; [19]): 110%
cell viability (P12-Ichikawa [2]; [20]): 111%
cell viability (P12-Ichikawa [2]; [21]): 110%
cell viability (P12-Ichikawa [2]; [22]): 2.34%
cell viability (P12-Ichikawa [2]; [23]): 2.68%
cell viability (P12-Ichikawa [2]; [24]): 2.61%
cell viability (P12-Ichikawa [2]; [25]): 2.36%
cell viability (P12-Ichikawa [2]; [26]): 3.14%
cell viability (P12-Ichikawa [2]; [27]): 1.58%
cell viability (P12-Ichikawa [2]; [28]): 2.72%
cell viability (P12-Ichikawa [2]; [29]): 98.9%
cell viability (P12-Ichikawa [2]; [30]): 106%
cell viability (P12-Ichikawa [2]; [31]): 108%
cell viability (P12-Ichikawa [2]; [32]): 107%
cell viability (P12-Ichikawa [2]; [33]): 3.38%
cell viability (P12-Ichikawa [2]; [34]): 3.46%
cell viability (P12-Ichikawa [2]; [35]): 3.34%
cell viability (P12-Ichikawa [2]; [36]): 2.6%
cell viability (P12-Ichikawa [2]; [37]): 3.15%
cell viability (P12-Ichikawa [2]; [38]): 3.95%
cell viability (P12-Ichikawa [2]; [39]): 2.58%
cell viability (SEM cells [3]; [7]): 81.1%
cell viability (SEM cells [3]; [8]): 89%
cell viability (SEM cells [3]; [9]): 95.1%
cell viability (SEM cells [3]; [10]): 101%
cell viability (SEM cells [3]; [11]): 5.64%
cell viability (SEM cells [3]; [12]): 4.52%
cell viability (SEM cells [3]; [13]): 4.32%
cell viability (SEM cells [3]; [14]): 4.63%
cell viability (SEM cells [3]; [15]): 4.25%
cell viability (SEM cells [3]; [16]): 3.1%
cell viability (SEM cells [3]; [17]): 4.21%
cell viability (SEM cells [3]; [18]): 100%
cell viability (SEM cells [3]; [19]): 103%
cell viability (SEM cells [3]; [20]): 105%
cell viability (SEM cells [3]; [21]): 81.5%
cell viability (SEM cells [3]; [22]): 4.85%
cell viability (SEM cells [3]; [23]): 4.94%
cell viability (SEM cells [3]; [24]): 4.25%
cell viability (SEM cells [3]; [25]): 4.39%
cell viability (SEM cells [3]; [26]): 4.14%
cell viability (SEM cells [3]; [27]): 3.14%
cell viability (SEM cells [3]; [28]): 4.36%
cell viability (SEM cells [3]; [29]): 73%
cell viability (SEM cells [3]; [30]): 106%
cell viability (SEM cells [3]; [31]): 85.9%
cell viability (SEM cells [3]; [32]): 90.4%
cell viability (SEM cells [3]; [33]): 5.18%
cell viability (SEM cells [3]; [34]): 4.76%
cell viability (SEM cells [3]; [35]): 4.87%
cell viability (SEM cells [3]; [36]): 4.53%
cell viability (SEM cells [3]; [37]): 4.12%
cell viability (SEM cells [3]; [38]): 2.58%
cell viability (SEM cells [3]; [39]): 4.19%
AUC of viability dose-response curve (NOMO1 [4]; HPLM + 10% dialyzed FBS): 182
AUC of viability dose-response curve (NOMO1 [4]; RPMI 5 mM glucose + 10% FBS): 181
AUC of viability dose-response curve (NOMO1 [4]; [40]): 189
AUC of viability dose-response curve (P12-Ichikawa [5]; HPLM + 10% dialyzed FBS): 175
AUC of viability dose-response curve (P12-Ichikawa [5]; RPMI 5 mM glucose + 10% FBS): 174
AUC of viability dose-response curve (P12-Ichikawa [5]; [40]): 176
AUC of viability dose-response curve (SEM cells [6]; HPLM + 10% dialyzed FBS): 166
AUC of viability dose-response curve (SEM cells [6]; RPMI 5 mM glucose + 10% FBS): 170
AUC of viability dose-response curve (SEM cells [6]; [40]): 162
